Where two headings read alike, the source gives them in different places.
Key:
Stability in plasma, dog = type: in vitro ADME; settings: dogs plasma
Method: The unbound fractions of IDP-73152 in various matrices were measured according to the manufacturer's instructions for the rapid equilibrium dialysis (RED) device (ThermoFisher Scientific, Waltham, MA, USA). Briefly, IDP-73152 was added to the plasma or the microsomal/hepatocyte incubation buffer from various species (i.e., mouse, rat, dog, and human for microsomal incubation; rat for hepatocyte incubation) to obtain final concentrations of the compound at 0.3, 1, and 3 μM. After the membrane insert was placed in the RED plate, the solution containing IDP-73152 was added (400 μL) to the sample chamber, and the dialysis buffer (600 μL) was added to the buffer chamber. The RED plate was sealed with parafilm and then incubated at 37 °C in the orbital shaker (Lab Companion, Daejeon, Korea) at 100 rpm for 5 h. […] The IDP-73152 concentration in the buffer/sample chambers (i.e., CBuffer Chamber and CSample Chamber) was determined by an assay. Thus, the fraction unbound was defined as:(2) % Fraction unbound=(CBuffer Chamber/CSample Chamber)×100% When necessary, the stability of IDP-73152 in the matrix was also determined at 5 h. […] Accordingly, the kinetics of IDP-73152 instability were determined in the rat blood at a final concentration of 0.3 μM. […]

[1] = Unbound fraction in plasma (rapid equilibrium dialysis), mouse; type: in vitro ADME; settings: mice plasma, 0.3, 1, 3 μM, RED 5 h, read-out: fu,p
Method: The unbound fractions of IDP-73152 in various matrices were measured according to the manufacturer’s instructions for the rapid equilibrium dialysis (RED) device (ThermoFisher Scientific, Waltham, MA, USA). Briefly, IDP-73152 was added to the plasma or the microsomal/hepatocyte incubation buffer from various species (i.e., mouse, rat, dog, and human for microsomal incubation; rat for hepatocyte incubation) to obtain final concentrations of the compound at 0.3, 1, and 3 μM. After the membrane insert was placed in the RED plate, the solution containing IDP-73152 was added (400 µL) to the sample chamber, and the dialysis buffer (600 μL) was added to the buffer chamber. The RED plate was sealed with parafilm and then incubated at 37 °C in the orbital shaker (Lab Companion, Daejeon, Korea) at 100 rpm for 5 h. After a 50 μL aliquot was aspirated from both the sample and buffer chambers, an equal volume of protein-free buffer or blank medium was replaced in the aspirated sample or buffer to render the matrices compositionally identical. The IDP-73152 concentration in the buffer/sample chambers (i.e., CBuffer Chamber and CSample Chamber) was determined by an assay. Thus, the fraction unbound was defined as:(2) % Fraction unbound=(CBuffer Chamber/CSample Chamber)×100%

[2] = Tissue distribution at steady state, constant-rate infusion in rats; type: in vivo; settings: for Kp at 10 h: 10 h infusion, read-out: KP,ss
Method: In this study, the extent of tissue distribution of IDP-73152 was also determined in rats. Rats received IDP-73152 at a constant rate of infusion (i.e., the rate of 0.8 mg/h (in 0.6 mL/h)) using a syringe pump (PHD ULTRA, Harvard apparatus, Holliston, MA, USA). The steady state was assumed to have been achieved when IDP-73152 was infused for 10 h (see below). Upon completion of the infusion, the animal was sacrificed, and major tissues (i.e., adipose tissue, brain, heart, kidney, liver, lung, muscle, skin, spleen, and testis) were collected. Assuming the density of tissues to be 1 g/mL, tissue samples were homogenized in twice their volume of phosphate buffered saline using a homogenizer (Ultra Turrax homogenizer, IKA-Werke GmbH & Co. KG, Staufen, Germany). Plasma samples and tissue homogenates were stored at −80 °C until analysis. The tissue-to-plasma concentration ratio at steady state (KP,ss) was then calculated for each tissue using the following equation [23, 24, 25]:(8) KP,ss=Ctissue,ss/Cplasma,ss, where Ctissue,ss and Cplasma,ss represent the concentration of the compound in the tissue and plasma at steady-state.
For the estimation of the volume of the distribution of IDP-73512 in rats, the steady-state volume of distribution (Vss) was calculated using the following equation [30]:(10) Vss=VP+Vrbc×EP+∑VT,i×KP,ss,i, where Vp, Vrbc, and VT,i are the volumes of plasma, red blood cells, and tissues, respectively. The erythrocyte-to-plasma partition coefficient (EP), is calculated by EP=1+(BP−1)/Hematocrit . The KP,ss for each tissue obtained from Equation (8) was applied for Equation (10). For the case of non-eliminating organs, the KP,ss was regarded as the tissue-to-plasma partition coefficient (KP) in PBPK equations (Appendix A). For the case of the liver—i.e., the eliminating organ—the KP,ss (KP,ss,LI) had to be corrected to account for the equilibrium being altered by the elimination. Thus, a PBPK-operative KP for liver (KP,LI) was calculated using the following equation [31]:(11) KP,LI=KP,ss,LI/(1−ER), where ER is the hepatic extraction ratio of the compound (i.e., CLh/(QLI·BP)). In this study, a compartmental absorption and transit (CAT) model consisting of stomach and five intestinal segments was considered for the description of the intestinal absorption kinetics of IDP-73152 in animals and humans. We assumed that the initial compartment denoted the stomach (Equation (12)), and the subsequent three compartments represented the small intestine and two additional compartments for the large intestine (i.e., a total of six compartments, with absorption occurring in the five intestinal compartments) (Equation (13)). The differential equations describing the rate of drug absorption and transit in the gastrointestinal tract can be written as: […]

With `CC(C)(C)[C@H](NC(=O)[C@H](CC1CCCC1)CN(O)C=O)C(=O)N1CCC(NCc2cc(F)c(F)cc2F)CC1` [IDP-73152] the “percentage remaining in plasma at 5 h” value (Stability in plasma, dog; 5 h, 37 °C) was 101 ± 6%, the “stability in plasma” value (Stability in plasma, dog; preliminary study) was “stable” and the fraction unbound at 5 h [1] was 0.0562 ± 0.0087. For the same compound, the Kp at 10 h ([2]; Sprague Dawley, rat, intravenous, 0.8 mg/h, adipose tissue) was 0.853 ± 0.196, the Kp at 10 h ([2]; Sprague Dawley, rat, intravenous, 0.8 mg/h, brain) was 0.0729 ± 0.0167 and the Kp at 10 h ([2]; Sprague Dawley, rat, intravenous, 0.8 mg/h, heart) was 2.15 ± 0.22. For the same compound, the Kp at 10 h ([2]; Sprague Dawley, rat, intravenous, 0.8 mg/h, kidney) was 8.68 ± 1.83, the Kp at 10 h ([2]; Sprague Dawley, rat, intravenous, 0.8 mg/h, liver) was 12.2 ± 3.3 and the Kp at 10 h ([2]; Sprague Dawley, rat, intravenous, 0.8 mg/h, lung) was 7.13 ± 1.28. For the same compound, the Kp at 10 h ([2]; Sprague Dawley, rat, intravenous, 0.8 mg/h, muscle) was 1.37 ± 0.3, the Kp at 10 h ([2]; Sprague Dawley, rat, intravenous, 0.8 mg/h, skin) was 1.08 ± 0.38 and the Kp at 10 h ([2]; Sprague Dawley, rat, intravenous, 0.8 mg/h, spleen) was 4.82 ± 1.3. For the same compound, the Kp at 10 h ([2]; Sprague Dawley, rat, intravenous, 0.8 mg/h, testis) was 0.338 ± 0.089, the “plasma concentration during infusion” value ([2]; intravenous infusion 0.8 mg/h, 10 h) was 2120 ± 340 ng/mL and the Vd ([2]; male, Sprague Dawley, rat, plasma and tissue homogenates, intravenous, 0.8 mg/h, from KP,ss of ten tissues, read-out: Vss calculated by Equation (10)) was 2.09 L/kg. For the same compound, the concentration at 10 h ([2]; male, Sprague Dawley, rat, plasma, intravenous infusion 0.8 mg/h for 10 h, from CLp, read-out: expected steady-state concentration) was 2120 ± 340 ng/mL, the concentration at 8 h ([2]; male, Sprague Dawley, rat, plasma, intravenous infusion 0.8 mg/h, 8 h, read-out: plasma concentration during infusion) was 2070 ± 360 ng/mL and the concentration at 9 h ([2]; male, Sprague Dawley, rat, plasma, intravenous infusion 0.8 mg/h, 9 h, read-out: plasma concentration during infusion) was 1910 ± 270 ng/mL.

From PMC9227536, “Prediction of Pharmacokinetics of IDP-73152 in Humans Using Physiologically-Based Pharmacokinetics” (Pharmaceutics, 2022)
